In paper PMC12136991 (ACS chemical neuroscience, 2025):
Converted amounts (≈) assume the structure as drawn. “And” between values parts separate entries of the source, which are not always exact repeats. Equal entries are not always repeated.

Columns and labels:
[1] = biological target: human μ-opioid receptor (OPRM1) (Homo sapiens, UniProt P35372); experiment: cell-based; details: for Emax: OPRM1, read-out: MOR Agonist %Emax ± SEM
Kinetic solubility assay = format: physicochemical; details: kinetic from dmso stock
[2] = Multi-point microsome stability assay, human; format: in vitro ADME; details: both, human microsomal fractions, pH 7.4
[3] = Multi-point microsome stability assay, mouse; format: in vitro ADME; details: male, CD-1, mouse, mouse microsomal fractions, pH 7.4
[4] = Multi-point microsome stability assay, rat; format: in vitro ADME; details: male, Sprague Dawley, rat microsomal fractions, pH 7.4
[5] = Multi-point cytosol stability assay, human; format: in vitro ADME; details: human cytosol fractions, pH 7.4
[6] = Multi-point cytosol stability assay, mouse; format: in vitro ADME; details: mouse cytosol fractions, pH 7.4
[7] = Multi-point cytosol stability assay, rat; format: in vitro ADME; details: rat cytosol fractions, pH 7.4
[8] = biological target: T1, human δ-opioid receptor (OPRD1) (Homo sapiens, UniProt P41143); experiment: Forskolin-induced cAMP accumulation assay, DOR agonist mode; details: for Emax: read-out: DOR Agonist %Emax ± SEM
[9] = biological target: T2, human κ-opioid receptor (OPRK1) (Homo sapiens, UniProt P41145); experiment: Forskolin-induced cAMP accumulation assay, KOR agonist mode; details: for Emax: read-out: KOR Agonist %Emax ± SEM
[10] = biological target: T1, human δ-opioid receptor (OPRD1); experiment: Forskolin-induced cAMP accumulation assay, DOR antagonist mode; details: for DOR Antagonist %Imax ± SEM: versus EC50 of SNC80, normalized to naltrexone
[11] = Parallel artificial membrane permeability assay; format: in vitro ADME; details: for PAMPA permeability Papp: stirring double-sink PAMPA
[12] = biological target: T2, human κ-opioid receptor (OPRK1); experiment: Forskolin-induced cAMP accumulation assay, KOR antagonist mode
[13] = biological target: T3, mouse mu opioid receptor (mMOR-CHO) (Mus musculus, UniProt P42866); experiment: Competition radioligand binding assay, [3H]naloxone, mMOR-CHO membranes
[14] = biological target: T3, mouse mu opioid receptor (mMOR-CHO); experiment: [35S]GTPγS functional assay, mMOR-CHO membranes; format: biochemical

T2 sequence (P41145 whole entry): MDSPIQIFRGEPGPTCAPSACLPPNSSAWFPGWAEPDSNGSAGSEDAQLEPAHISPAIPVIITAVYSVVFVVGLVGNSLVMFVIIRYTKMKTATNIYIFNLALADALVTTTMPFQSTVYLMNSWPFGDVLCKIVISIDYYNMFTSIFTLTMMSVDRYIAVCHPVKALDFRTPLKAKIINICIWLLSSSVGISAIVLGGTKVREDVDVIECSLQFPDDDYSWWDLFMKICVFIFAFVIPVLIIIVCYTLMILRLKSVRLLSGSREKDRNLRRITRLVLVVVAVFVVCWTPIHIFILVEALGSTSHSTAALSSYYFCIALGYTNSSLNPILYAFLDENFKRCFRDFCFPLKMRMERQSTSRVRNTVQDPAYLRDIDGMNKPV
T3 sequence (P42866 whole entry): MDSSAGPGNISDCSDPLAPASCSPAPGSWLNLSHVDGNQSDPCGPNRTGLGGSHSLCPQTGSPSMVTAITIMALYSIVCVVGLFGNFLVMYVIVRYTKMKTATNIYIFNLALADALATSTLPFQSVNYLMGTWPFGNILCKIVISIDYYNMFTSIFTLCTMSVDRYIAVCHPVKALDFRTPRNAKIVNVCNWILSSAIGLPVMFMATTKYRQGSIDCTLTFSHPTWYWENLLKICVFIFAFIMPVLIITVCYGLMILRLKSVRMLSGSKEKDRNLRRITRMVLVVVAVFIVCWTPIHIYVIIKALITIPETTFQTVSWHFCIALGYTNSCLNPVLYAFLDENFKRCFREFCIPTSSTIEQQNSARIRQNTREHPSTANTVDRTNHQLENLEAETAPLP
T1 sequence (P41143 whole entry): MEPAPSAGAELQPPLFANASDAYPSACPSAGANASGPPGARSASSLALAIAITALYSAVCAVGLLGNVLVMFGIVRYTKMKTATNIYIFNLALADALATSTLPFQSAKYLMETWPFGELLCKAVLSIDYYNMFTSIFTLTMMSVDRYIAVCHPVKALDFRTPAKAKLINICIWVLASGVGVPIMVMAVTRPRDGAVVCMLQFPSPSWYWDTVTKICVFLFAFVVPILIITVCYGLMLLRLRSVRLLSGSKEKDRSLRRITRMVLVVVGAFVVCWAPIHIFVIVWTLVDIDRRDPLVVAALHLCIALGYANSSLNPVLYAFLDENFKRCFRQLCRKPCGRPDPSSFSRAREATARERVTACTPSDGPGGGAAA
Sequence of human μ-opioid receptor (OPRM1) (P35372 whole entry): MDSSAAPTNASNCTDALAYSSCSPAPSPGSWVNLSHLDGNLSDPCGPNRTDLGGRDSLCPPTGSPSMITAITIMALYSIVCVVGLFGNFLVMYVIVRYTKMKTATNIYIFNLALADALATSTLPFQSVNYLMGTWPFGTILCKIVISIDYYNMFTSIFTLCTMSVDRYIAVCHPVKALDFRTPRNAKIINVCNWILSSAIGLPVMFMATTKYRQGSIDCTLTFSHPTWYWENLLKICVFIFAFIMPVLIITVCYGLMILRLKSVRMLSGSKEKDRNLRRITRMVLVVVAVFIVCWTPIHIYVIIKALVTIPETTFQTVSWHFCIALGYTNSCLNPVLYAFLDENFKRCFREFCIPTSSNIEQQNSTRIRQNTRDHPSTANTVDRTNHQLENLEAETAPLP

Compound | EC50 [1] | Emax [1] | solubility kinetic (Kinetic solubility assay) | half-life at 1 μM [2] | half-life at 1 μM [3] | half-life at 1 μM [4] | half-life at 1 μM [5] | half-life at 1 μM [6] | half-life at 1 μM [7] | EC50 [8] | Emax [8] | EC50 [9] | IC50 [10] | DOR Antagonist %Imax ± SEM [10] | other results
C=C[C@H]1C2CCCC1(c1cccc(O)c1)CCN2CCc1ccccc1[N+](=O)[O-] (stereo in doubt) [compound 24, 3-((1S,SR,9R)-2-(2-Nitrophenethyl)-9-vinyl-2-azabicyclo[3.3.1]nonan-5-yl)phenol] | 2.55 nM | 92.6% | > 39 µg/mL | 5.02 min | 1.22 min | 0.41 min | 112 min | 102 min | > 120 min | 954 ± 502 nM | 35.9% | > 10000 nM | 114 ± 11.7 nM | 63.5 ± 12.0% | Emax [9]: 0%
C=C[C@H]1C2CCCC1(c1cccc(O)c1)CCN2CCc1cccc(O)c1 (stereo in doubt) [compound 25, 3-((1S,5R,9R)-2-(3-Hydroxyphenethyl)-9-vinyl-2-azabicyclo[3.3.1]nonan-5-yl)phenol] | 0.93 nM | 89.7% |  | 27 min | 4.02 min | 9.65 min | > 120 min | > 120 min | > 120 min | > 10000 nM | 0% | > 10000 nM | 107 ± 12.4 nM | 138.7 ± 19.3% | 
C=C[C@H]1[C@H]2CCC[C@]1(c1cccc(NC(C)=O)c1)CCN2CCc1ccccc1 [compound 3, N-(3-((1R,5S,9R)-2-Phenethyl-9-vinyl-2-azabicyclo[3.3.1]nonan-5-yl)phenyl)acetamide] | 2.73 nM | 101% | 38 µg/mL (≈ 97.8 µM) | 21.3 min | 6.4 min | 3 min | 78 min | 22.9 min | 88.1 min | 303 ± 40.7 nM | 56.6% | 357 ± 109 nM |  |  | Papp ([11]; PAMPA): 731 ×10⁻⁶ cm/s; Emax [9]: 45.5%
C=C[C@@H]1[C@H]2CCC[C@]1(c1cccc(O)c1)CCN2C [compound 10, 3-((1R,5S,9S)-2-Methyl-9-vinyl-2-azabicyclo[3.3.1]nonan-5-yl)phenol] | > 10000 nM |  | > 25 µg/mL | > 120 min | 72.1 min | 50.8 min | > 120 min | > 120 min | 116 min | > 10000 nM |  | > 10000 nM | > 10000 nM |  | IC50 [12]: > 10000 nM
C=C[C@H]1[C@H]2CCC[C@]1(c1cccc(O)c1)CCN2C [compound 11, 3-((1R,5S,9R)-2-Methyl-9-vinyl-2-azabicyclo[3.3.1]nonan-5-yl)phenol] | > 10000 nM |  | > 25 µg/mL | 68.9 min | 21.8 min | 62.6 min | 97.9 min | 112 min | > 120 min | > 10000 nM |  | > 10000 nM | > 10000 nM |  | IC50 [12]: > 10000 nM
C=C[C@H]1[C@H]2CCC[C@]1(c1cccc(O)c1)CCN2CC1CC1 [compound 15, 3-((1R,5S,9R)-2-(Cyclopropylmethyl)-9-vinyl-2-azabicyclo[3.3.1]nonan-5-yl)phenol] | > 10000 nM |  | > 29 µg/mL | 8.7 min | 2.7 min | 9.7 min | > 120 min | > 120 min | 108 min | > 10000 nM |  | > 10000 nM | > 10000 nM |  | PAMPA permeability Papp [11]: >1000 10E-6 cm/s
C=C[C@H]1[C@H]2CCC[C@]1(c1cccc(O)c1)CCN2CCc1cccs1 [compound 16, 3-((1R,5S,9R)-2-(2-(Thiophen-2-yl)ethyl)-9-vinyl-2-azabicyclo[3.3.1]nonan-5-yl)phenol] | 0.8 nM | 101% | > 35 µg/mL | 8.21 min | 1.66 min | 1.04 min | > 120 min | > 120 min | > 120 min | 13.2 ± 6.8 nM | 20% |  | 59.8 ± 13 nM | 87.1 ± 13.9% | 
C=C[C@H]1[C@H]2CCC[C@]1(c1cccc(O)c1)CCN2CCc1ccc([N+](=O)[O-])cc1 [compound 17, 3-((1R,5S,9R)-2-(4-Nitrophenethyl)-9-vinyl-2-azabicyclo[3.3.1]nonan-5-yl)phenol] | > 10000 nM |  | 10.6 µg/mL (≈ 27 µM) | 16.8 min | 9.31 min | 12.9 min | > 120 min | 105 min | > 120 min |  |  | > 10000 nM | 105 ± 21.3 nM | 137.2 ± 9.7% | Ki [13]: 0.41 ± 0.05 nM; IC50 [14]: 16.2 ± 2.52 nM; GTPγS % Imax of (DAMGO) ([14]; MOR, maximal percent inhibition): 98.42% and 98.42 ± 4.24%
C=C[C@H]1[C@H]2CCC[C@]1(c1cccc(O)c1)CCN2CCc1cccc([N+](=O)[O-])c1 [compound 18, 3-((1R,5S,9R)-2-(3-Nitrophenethyl)-9-vinyl-2-azabicyclo[3.3.1]nonan-5-yl)phenol] | 2.05 nM | 85.8% | > 39 µg/mL | 10.6 min | 3.54 min | 1.98 min | > 120 min | > 120 min | > 120 min | > 10000 nM |  | > 10000 nM | 52.5 ± 8.43 nM | 149.9 ± 13.2% | PAMPA permeability Papp [11]: >1000 10E-6 cm/s; Emax [9]: 0%
C=C[C@H]1[C@H]2CCC[C@]1(c1cccc(O)c1)CCN2CCc1ccc(F)cc1 [compound 19, 3-((1R,5S,9R)-2-(4-Fluorophenethyl)-9-vinyl-2-azabicyclo[3.3.1]nonan-5-yl)phenol] | 3.33 nM | 74.3% | > 36 µg/mL | 11.8 min | 5.26 min | 7.6 min | > 120 min | 108 min | 79.4 min | > 10000 nM |  | > 10000 nM | 120 ± 18.5 nM | 153.1 ± 15.3% | 
C=C[C@H]1[C@H]2CCC[C@]1(c1cccc(O)c1)CCN2CCc1ccc(O)cc1 [compound 20, 3-((1R,5S,9R)-2-(4-Hydroxyphenethyl)-9-vinyl-2-azabicyclo[3.3.1]nonan-5-yl)phenol] | 4.16 nM | 54.8% | > 34 µg/mL | 88.1 min | 12.5 min | 27.8 min | > 120 min | > 120 min | > 120 min | > 10000 nM |  | > 10000 nM | 303 ± 29.2 nM | 163.6 ± 19.5% | 
